Data from publication PMC8703873, “Structure and Activity of a Selective Antibiofilm Peptide SK-24 Derived from the NMR Structure of Human Cathelicidin LL-37” (Pharmaceuticals, 2021).
≈ marks a conversion by molar mass, not a printed value. Non-standard residues stand in square brackets, D forms with d. Residues, ends and D or L forms follow the SMILES beside them. Bip = N[C@@H](Cc1ccc(-c2ccccc2)cc1)C(=O)O

What was measured:
[1] = test system: S. aureus USA300; type: cell-based, Staphylococcus aureus
Experimental: (§1) The antibiotic-resistant pathogens used in this study include the Gram-positive bacteria Enterococcus faecium V286-17 and Staphylococcus aureus USA300 LAC and the Gram-negative bacteria Klebsiella pneumoniae E406-17, Acinetobacter baumannii B28-16, Pseudomonas aeruginosa E411-17, and Escherichia coli E423-17. All bacteria were cultivated in tryptic soy broth (TSB) at 37 °C, 220 rpm.
(§2) The antibacterial activity of peptides was evaluated using a standard broth microdilution protocol with minor modifications. In brief, peptides were made at various concentrations, 10 μL per well in a 96-well polystyrene microplate. Logarithmic phase bacterial cultures (i.e., optical density (OD) at 600 nm ≈ 0.5) were diluted to 0.001 OD, and aliquots of 90 μL were added to each well. Untreated bacterial culture and medium were included as positive and negative controls, respectively. Plates were incubated at 37 °C overnight and read at 630 nm using a ChroMate Microplate Reader (Awareness Technology, Palm City, FL, USA). […] Our previously designed peptide 17BIPHE2 [32] was included as a positive control, and RI-10, a peptide without antibacterial activity in rich media, was utilized as a negative control.

[2] = test system: S. aureus USA300 LAC; test: Membrane depolarization (DiBAC4(3)); type: cell-based, Staphylococcus aureus; settings: peptide 8 µM; similar trends at 16 and 32 µM; DiBAC4(3) fluorescence
Experimental: The experiment was conducted as described. In brief, an overnight culture of S. aureus USA300 LAC was subcultured in a fresh TSB medium and grown to the exponential phase. Cells were spun using centrifugation and washed twice with PBS, and resuspended in twice the volume of PBS containing 25 mM glucose and incubated at 37 °C for 15 min. For membrane depolarization measurements, 500 nM (final concentration) of the dye DiBAC4 (3) (bis-(1,3- dibutylbarbituric acid) trimethine oxonol) (AnaSpec, San Jose, CA, USA) was added and vortexed gently. Aliquots of 90 μL of the energized bacteria solution were loaded to the wells, and the plate was fed into a FLUOstar Omega microplate reader. Fluorescence was read for 20 min at excitation and emission wavelengths of 485 and 520 nm, respectively, to get dye normalization. Then 10 μL of diluted peptide solutions were added and gently mixed. Fluorescence readings were recorded for 40 min, where Triton X-100 (0.1%) was used as a positive control.

[3] = test system: Human red blood cells; test: Hemolytic assay; type: cell-based; settings: red cells of human, 1 h
Experimental: Human red blood cells (hRBCs, the UNMC Blood Bank) were washed three to five times with saline (Fisher Scientific, Waltham, MA, USA) at 800 g for 10 min each time, until the supernatant was clear. The supernatant was discarded, and hRBCs were suspended in saline at a final density of 2%. Ninety microliters of hRBC suspensions were added to each well of 96-well plates containing 10 µL of 10× serially diluted peptides. After incubation at 37 °C for 1 h, the plates were centrifuged at 1500 rpm for 5 min. About 80 µL of the supernatant was carefully pipetted to a new 96-well microplate and read at 545 nm to measure the amount of hemoglobin released. The positive control was 1% Triton X-100, and the negative control was saline. The percentage of hRBC lysis was calculated based on the hemoglobin released.

[4] = test system: E. coli E423-17; type: cell-based, Escherichia coli
Experimental: as §1, §2

[5] = HPLC retention time (measure of peptide hydrophobicity); type: physicochemical; settings: chromatographic, Waters C8 symmetry hydrophobic column, as described in ref 34; used as indicator of peptide hydrophobicity
Excerpt: In the membrane-bound LL-37 structure determined by 3D NMR spectroscopy, a hydrophobic gap exists (Figure 1A). The location of a hydrophilic S9 on the hydrophobic surface of LL-37 splits the long helix into two hydrophobic domains (gold sticks). The SK-24 peptide we identified here corresponds to the long hydrophobic domain [26]. The amino acid sequence of SK-24, along with LL-37 and its derived antimicrobial peptides, is depicted in Figure 1B. Peptide parameters, including net charge, hydrophobic content, Boman index, GRAVY, hydrophobicity, and hydrophobic moment of each peptide, were calculated using online tools, such as the APD [8] and HeliQuest (Table 1). Except for the shortest RI-10 (net charge +3), LL-37 and its other derived peptides have net charges +5 or +6, above the average net charge (+3.3) of natural antimicrobial peptides registered in the APD [8, 35, 36]. Overall, the hydrophobic percentages (Pho) of these peptides calculated in the APD are proportional to the hydrophobicity and hydrophobic moment calculated by HeliQuest in Table 1. Of note, LL-37 has the highest net charge (+6) and Boman index but the lowest Pho%, GRAVY, and hydrophobic moment.
All peptides were chemically synthesized and purified to >95% (Genemed Synthesis, San Antonio, TX, USA). The quality of each peptide was determined based on mass spectrometry (MS) and high-performance liquid chromatography (HPLC). Peptide stock solutions were freshly made by solubilizing in autoclaved distilled water, and their concentrations were quantitated using UV spectroscopy based on the absorbance difference at 215 and 225 nm as described. Peptide retention time was measured on a Waters C8 symmetry hydrophobic column as described. Other chemicals were purchased from Sigma (St. Louis, MO, USA) unless specified.

[6] = test system: A. baumannii B28-16; type: cell-based, Acinetobacter baumannii
Experimental: as §1, §2

[7] = test system: P. aeruginosa E411-17; type: cell-based, Pseudomonas aeruginosa; settings: E411-17
Experimental: as §1, §2

[8] = test system: S. aureus USA300 LAC preformed biofilms; settings: S. aureus USA300 LAC and other clinical strains (USA200, USA400, Mu50); cited from earlier work
Experimental: Here, we compared the antibiofilm activity of SK-24 with that of GF-17, GI-20, and 17BIPHE2 against the 24 h preformed biofilms of S. aureus USA300. […] Only SK-24 a ...

With CC(C)C[C@H](NC(=O)[C@H](CC(N)=O)NC(=O)[C@H](CCCNC(=N)N)NC(=O)[C@@H](CC(C)C)NC(=O)[C@H](Cc1ccc(-c2ccccc2)cc1)NC(=O)[C@H](CC(=O)O)NC(=O)[C@H](CCCCN)NC(=O)[C@@H](CC(C)C)NC(=O)[C@H](CCCNC(=N)N)NC(=O)[C@H](CCC(N)=O)NC(=O)[C@@H](NC(=O)[C@@H](CC(C)C)NC(=O)[C@H](CCCNC(=N)N)NC(=O)[C@H](CCCCN)NC(=O)[C@H](Cc1ccc(-c2ccccc2)cc1)NC(=O)CN)C(C)C)C(=O)N[C@H](C(N)=O)C(C)C [Peptide 17BIPHE2] (H-G[Bip]KR[dL]VQR[dL]KD[Bip][dL]RNLV-NH2; N-terminus assumed) as the compound, how does the MIC [1] read?
The MIC was 4 µM (≈ 9.02 µg/mL).

What about the “Membrane depolarization ability (order, words)” value [2] of the same compound?
The value was “GI-20 > 17BIPHE2 > GF-17~SK-24 > LL-37”.

What about the “HC50 (50% hemolytic concentration)” value [3] of the same compound?
Its value is ~ 200 µM.

What about the MIC [4] of the same compound?
Its MIC is 4 µM (≈ 9.02 µg/mL).

What about the “tHPLC (HPLC retention time)” value [5] of the same compound?
The value was 10.753 min.

What about the MIC [6] of the same compound?
The MIC was 4 to 8 µM.

And the MIC [7]?
The MIC was 8 µM (≈ 18 µg/mL).

And the “Disruption of 24 h preformed biofilms (words, found previously)” value [8]?
Its value is “highly effective”.
